Test results as given in article PMC5453931, “Cathelicidin-trypsin inhibitor loop conjugate represents a promising antibiotic candidate with protease stability” (Scientific Reports, 2017).
In brackets after ≈: the same amount, converted by molar mass. Where a SMILES comes first, the peptide text is derived from it. Bridges are numbered along the chain shown (N, C = ends).

Key:
[1] = test system: established C. albicans biofilm; test: Biofilm disruption assay, established biofilm (XTT, PI/SYBR Green I); assay type: cell-based
Description: TIH3F that has the best antifungal activity among the four peptides was chosen to examine the effect on the C. albicans biofilm formation and the established biofilm using previously described method with minor modifications. In the biofilm inhibition assay, after the incubation at 35 °C, C. Albicans was diluted to 1 × 10^6 CFU/mL in RPMI-1640 medium. Then 2 mL culture was added to each well of 6-well plates with coverslips at the bottom, and incubated at 35 °C in a humid chamber for 3 h. Non-adherent cells were then washed away by PBS, and series concentrations of TIH3F (0, 1, 2, 4 μg/mL) were added into the plate, with amphotericin B as control. The formation of the biofilm was determined by the XTT Cell Proliferation and Cytotoxicity Kit (KeyGEN BioTECH, Nanjing, China) after 36-h incubation. In the biofilm disruption assay, the biofilm was preformed as described above but with a longer incubation time up to 72 h. Then TIH3F and amphotericin B of series concentrations (0, 2.5, 5, 10, 25, 50 μg/mL) was added after non-adherent cells were washed out. The measurement of remaining biofilm was then determined. In order to further confirm the antifungal effect of TIH3F against C. albicans encased in biofilms, the established biofilm was treated with TIH3F (0, 5, 50 μg/mL), washed three times with PBS, and finally stained with 1 mL 1000-fold diluted PI/SYBR Green I at 30 °C in the dark for 20 min. After washing with PBS, the plate was immediately photographed with fluorescence microscope.

[2] = test system: E. coli 08040726; test: MIC, two-fold broth microdilution (second listing of the strain number); assay type: cell-based; settings: Gram-negative, MH broth, 37 °C, 18 h, mean of three independent experiments in duplicates
Description: (§1) A two-fold broth microdilution method described in our previous paper was used to determine the antimicrobial activities of parental and hybrid peptides. More than 30 strains including Gram-negative bacteria, Gram-positive bacteria and fungi were used in the current assay, in which the standard strains were stored in our lab and the clinical strains were collected from local hospitals. Briefly, bacteria were incubated in Mueller-Hinton broth (MH broth) at 37 °C to exponential phase and diluted to 10^6 CFU/mL. A serial dilution of peptide sample were prepared in 96-well microtiter plates (50 μL) and mixed with equal volume of microbial inoculums (50 μL). The plate was slowly shaken in the microbial incubator, and measured at A595 after incubation at 37 °C for 18 h. The minimal concentrations at which no microbial growth occurred were recorded as MIC (minimal inhibitory concentration) values. The traditional antibiotic ampicillin was used as positive control. The results are shown in an average of the MICs obtained from three independent experiments.

[3] = biological target: trypsin; test: Trypsin inhibition assay (NBLAN hydrolysis, Dixon method); assay type: biochemical; settings: 50 mM Tris–HCl pH 7.8, trypsin 0.1 mg/mL, 5 min pre-incubation at 37 °C, substrate NBLAN 48, 96, 192 μg/mL, 405 nm
Description: The inhibition effect on the hydrolysis of synthetic chromogenic substrate by trypsin was assayed in 50 mM Tris–HCl, pH 7.8 buffer at room temperature. The trypsin of final concentration of 0.1 mg/mL and different amounts of the hybrid peptide (final concentrations ranging from 0 to 0.16 μg/mL) were pre-incubated for 5 min at 37 °C. N-α-Benzoyl-DL-arginine p-nitroanilide hydrochloride (NBLAN) was used as a substrate for trypsin. The reaction was initiated by the addition of NBLAN with a final concentration of 48, 96 and 192 μg/mL, respectively. The formation of yellow product, p-nitroaniline was monitored continuously at 405 nm[61]. The inhibition constant Ki of the hybrid peptides were determined according to the method of Dixon (1953)[62].

[4] = test system: E. coli 08040726; test: Bacterial killing kinetic assay, colony counting; assay type: cell-based
Description: The bacterial killing kinetics of the hybrid peptides against E. coli 08040726 was determined by counting the changes in the viable bacterial clones after peptide treatment. The experiment was carried out according to the method described previously with minor modifications. Fresh colonies of the bacteria were incubated in MH broth at 37 °C for 12 h and diluted to 10^6 CFU/in fresh MH broth. The hybrid peptide was added to the bacterial suspension with a final concentration of 1x and 5x corresponding MICs, and incubated at 37 °C for 0, 10, 20, 30, 45, 60, 90, 120, and 180 mins. At each time point, aliquots (50 μL) were removed and diluted with fresh MH broth for 1000 times. […] of the dilutions were coated on MH agar plates, incubated overnight at 37 °C, and the viable colonies were counted. Ampicillin was used as positive control and sterile deionized water was used as negative control.

[5] = test system: Staphylococcus epidermidis; test: MIC, two-fold broth microdilution; assay type: cell-based; settings: Gram-positive; two-fold broth microdilution, MH broth, 37 °C, 18 h; mean of three independent experiments in duplicates
Description: as §1

[6] = test system: Vibrio Parahaemolyticus; test: MIC, two-fold broth microdilution; assay type: cell-based; settings: Aquatic pathogenic bacteria; two-fold broth microdilution, 37 °C, 18 h; mean of three independent experiments in duplicates
Description: as §1

[7] = test system: E. Coli 08032813; test: MIC, two-fold broth microdilution; assay type: cell-based; settings: Gram-negative; two-fold broth microdilution, MH broth, 37 °C, 18 h; mean of three independent experiments in duplicates
Description: as §1

[8] = test system: Candida glabrata 08A802; test: microbe, parasite or virus in culture; assay type: cell-based; settings: 08A802, 18 h
Description: as §1

[9] = test system: Edwardsiella tarda; test: microbe, parasite or virus in culture; assay type: cell-based; settings: Aquatic pathogenic bacteria; two-fold broth microdilution, 37 °C, 18 h; mean of three independent experiments in duplicates
Description: as §1

[10] = test system: S. Maltophilia 090223; test: microbe, parasite or virus in culture; assay type: cell-based; settings: 090223, 18 h
Description: as §1

[11] = test system: Aeromonas veronii; test: microbe, parasite or virus in culture; assay type: cell-based; settings: 18 h
Description: as §1

[12] = test system: Vibrio cholerae; test: microbe, parasite or virus in culture; assay type: cell-based; settings: 18 h
Description: as §1

[13] = test system: P. Aeruginosa 08021015; test: microbe, parasite or virus in culture; assay type: cell-based; settings: Gram-negative; two-fold broth microdilution, MH broth, 37 °C, 18 h; mean of three independent experiments in duplicates
Description: as §1

[14] = test system: Proteus mirabilis 1376; test: microbe, parasite or virus in culture; assay type: cell-based; settings: Gram-negative; two-fold broth microdilution, MH broth, 37 °C, 18 h; mean of three independent experiments in duplicates
Description: as §1

[15] = test system: Vibrio brasiiensis; test: microbe, parasite or virus in culture; assay type: cell-based; settings: 18 h
Description: as §1

[16] = test system: Escherichia coli ATCC25922; test: microbe, parasite or virus in culture; assay type: cell-based; settings: ATCC25922, 18 h
Description: as §1

[17] = test system: Vibrio harveyi; test: microbe, parasite or virus in culture; assay type: cell-based; settings: 18 h
Description: as §1

[18] = test system: Candida albicans 08030102; test: microbe, parasite or virus in culture; assay type: cell-based; settings: 08030102, 18 h
Description: as §1

[19] = test system: E. Coli 08032823; test: microbe, parasite or virus in culture; assay type: cell-based; settings: 08032823, 18 h
Description: as §1

[20] = test system: Enterococcus faecium 08052315; test: microbe, parasite or virus in culture; assay type: cell-based; settings: 08052315, 18 h
Description: as §1

[21] = test system: K. Pneumoniae 08040202; test: microbe, parasite or virus in culture; assay type: cell-based; settings: Gram-negative; two-fold broth microdilution, MH broth, 37 °C, 18 h; mean of three independent experiments in duplicates
Description: as §1

[22] = test system: K. Pneumoniae 08031012; test: microbe, parasite or virus in culture; assay type: cell-based; settings: Gram-negative; two-fold broth microdilution, MH broth, 37 °C, 18 h; mean of three independent experiments in duplicates
Description: as §1

[23] = test system: Nocardia asteroides 08052412; test: microbe, parasite or virus in culture; assay type: cell-based; settings: 18 h
Description: as §1

[24] = test system: S. Aureus 08032615; test: microbe, parasite or virus in culture; assay type: cell-based; settings: Gram-positive; two-fold broth microdilution, MH broth, 37 °C, 18 h; mean of three independent experiments in duplicates
Description: as §1

[25] = test system: S. Aureus 08032810; test: microbe, parasite or virus in culture; assay type: cell-based; settings: Gram-positive; two-fold broth microdilution, MH broth, 37 °C, 18 h; mean of three independent experiments in duplicates
Description: as §1

[26] = test system: Aeromonas sobria; test: microbe, parasite or virus in culture; assay type: cell-based; settings: 18 h
Description: as §1

[27] = test system: Bacillus subtilis 08042313; test: microbe, parasite or virus in culture; assay type: cell-based; settings: 08042313, 18 h
Description: as §1

[28] = test system: S. Aureus 08032706; test: microbe, parasite or virus in culture; assay type: cell-based; settings: Gram-positive; two-fold broth microdilution, MH broth, 37 °C, 18 h; mean of three independent experiments in duplicates
Description: as §1

CC[C@H](C)[C@@H]1NC(=O)[C@H](CO)NC(=O)[C@H](CCCCN)NC(=O)[C@H]([C@@H](C)O)NC(=O)[C@H](Cc2c[nH]c3ccccc23)NC(=O)[C@@H](NC(=O)[C@H](Cc2ccccc2)NC(=O)[C@H](CCCCN)NC(=O)[C@H](CCCCN)NC(=O)[C@H](Cc2ccccc2)NC(=O)[C@H](C)NC(=O)[C@H](CCCNC(=N)N)NC(=O)[C@H](CCCNC(=N)N)NC(=O)[C@H](Cc2ccccc2)NC(=O)[C@H](CO)NC(=O)[C@H](CCCCN)NC(=O)[C@H](Cc2ccccc2)NC(=O)[C@H](Cc2ccccc2)NC(=O)[C@H](CCCNC(=N)N)NC(=O)[C@H](CCCCN)NC(=O)[C@H](Cc2ccccc2)NC(=O)[C@H](Cc2ccccc2)NC(=O)[C@@H](N)CCCCN)CSSC[C@@H](C(=O)O)NC(=O)[C@@H]2CCCN2C(=O)[C@H](CCCCN)NC(=O)[C@@H]2CCCN2C(=O)[C@@H]2CCCN2C1=O [H3TIF] (H-KFFKRFFKSFRRAFKKFCWTKSIPPKPC-OH; disulfide 18-28)
damage of established C. albicans biofilm ([1]; 5 μg/mL, biofilm preformed 72 h, XTT metabolic activity, Fig. 2B): evident antifungal activity
killing of C. albicans in preformed biofilm ([1]; 50 μg/mL, PI/SYBR Green I staining, fluorescence microscopy, Fig. 2C): destroy all of the cell membranes
MIC E. Coli 08040726 (second line with this strain number) [2]: — (no detectable activity in MIC assay in dose of 200 µg/mL or in trypsin inhibition assay at concentration of 160 μg/mL)
Ki [3]: 6.5 µM
time of killing toward E. coli ([4]; 1xMIC): ≤ 2 h
time of killing toward E. coli ([4]; 5xMIC): ≤ 0.5 h
MIC Staphylococcus epidermidis [5]: — (no detectable activity in MIC assay in dose of 200 µg/mL or in trypsin inhibition assay at concentration of 160 μg/mL)
MIC Vibrio Parahaemolyticus [6]: 2.37 µg/mL (≈ 0.667 µM)
MIC E. Coli 08032813 [7]: — (no detectable activity in MIC assay in dose of 200 µg/mL or in trypsin inhibition assay at concentration of 160 μg/mL)
MIC Candida glabrata 08A802 [8]: 9.38 µg/mL (≈ 2.64 µM)
MIC Edwardsiella tarda [9]: — (no detectable activity in MIC assay in dose of 200 µg/mL or in trypsin inhibition assay at concentration of 160 μg/mL)
MIC S. Maltophilia 090223 [10]: 4.69 µg/mL (≈ 1.32 µM)
MIC Aeromonas veronii [11]: 9.38 µg/mL (≈ 2.64 µM)
MIC Vibrio cholerae [12]: 9.38 µg/mL (≈ 2.64 µM)
MIC P. Aeruginosa 08021015 [13]: — (no detectable activity in MIC assay in dose of 200 µg/mL or in trypsin inhibition assay at concentration of 160 μg/mL)
MIC Proteus mirabilis 1376 [14]: — (no detectable activity in MIC assay in dose of 200 µg/mL or in trypsin inhibition assay at concentration of 160 μg/mL)
MIC Vibrio brasiiensis [15]: 4.69 µg/mL (≈ 1.32 µM)
MIC Escherichia coli ATCC25922 [16]: 37.5 µg/mL (≈ 10.5 µM)
MIC Vibrio harveyi [17]: 18.75 µg/mL (≈ 5.27 µM)
MIC Candida albicans 08030102 [18]: 4.69 µg/mL (≈ 1.32 µM)
MIC E. Coli 08032823 [19]: 37.5 µg/mL (≈ 10.5 µM)
MIC Enterococcus faecium 08052315 [20]: 9.38 µg/mL (≈ 2.64 µM)
MIC K. Pneumoniae 08040202 [21]: — (no detectable activity in MIC assay in dose of 200 µg/mL or in trypsin inhibition assay at concentration of 160 μg/mL)
MIC K. Pneumoniae 08031012 [22]: — (no detectable activity in MIC assay in dose of 200 µg/mL or in trypsin inhibition assay at concentration of 160 μg/mL)
MIC Nocardia asteroides 08052412 [23]: 4.69 µg/mL (≈ 1.32 µM)
MIC S. Aureus 08032615 [24]: — (no detectable activity in MIC assay in dose of 200 µg/mL or in trypsin inhibition assay at concentration of 160 μg/mL)
MIC S. Aureus 08032810 [25]: — (no detectable activity in MIC assay in dose of 200 µg/mL or in trypsin inhibition assay at concentration of 160 μg/mL)
MIC Aeromonas sobria [26]: 18.75 µg/mL (≈ 5.27 µM)
MIC Bacillus subtilis 08042313 [27]: 37.5 µg/mL (≈ 10.5 µM)
MIC S. Aureus 08032706 [28]: — (no detectable activity in MIC assay in dose of 200 µg/mL or in trypsin inhibition assay at concentration of 160 μg/mL)
